Laboratory results as given in patent US20120058504A1, “METHODS AND APPARATUS FOR DIELECT[…] AND MEASUREMENT OF SINGLE CELLS OR OTHER PARTICLES IN MI[…]” (SIMON FRASER UNIVERSITY, priority 2009, published 2012).

What was measured:
[1] = system: MDR leukemia cancer cell (CEM VLB); experiment: DNR accumulation and MDR reversal in a single cell, DEP-based microfluidic chip (Chip IV), fluorescence measurement; conditions: DNR 35 μM, before CsA was delivered, 100-200 s, 35° C.
Experimental: Furthermore, DEP conditions were optimized to move a single multidrug resistant cancer cell 43 during fluorescence measurement using Chip TV (FIG. 20). Cell 43 was transferred out of fluorescent detection window 47 and back into detection window 47 by switching the voltage between electrodes AB and electrodes BC. When cell 43 was moved out of detection window 47, only the background (Fbackground) was measured. When cell 43 was moved back into detection window 47, the total fluorescence (Ftotal) was measured. By background correction, the absolute fluorescence of cell 43 (Fcell=Ftotal−Fbackground) was obtained. At the same time, a chemo-therapeutic drug, daunorubicin (DNR) was delivered to cell retention region 30 via solution reservoir 18B and microchannel 20B. The uptake of DNR inside a single MDR cancer cell 43 (CEM VLB) was monitored. The measurement results are depicted in FIG. 20b, showing many cycles of cell fluorescence (peaks) and troughs (background). […]
After DEP-based single cell chip 10 (Chip IV, FIG. 20) was used to move leukemia cancer cell 43 into and out of detection window 47 during fluorescence measurement for anticancer drug (for example, daunorubicin (DNR)) accumulation inside cell 43, chip 10 was further used for MDR reversal studies at an elevated temperature (35° C.). […]

[2] = system: CEM VLB cell; experiment: DNR accumulation in a single adhered cell, SASCA method (chip without DEP electrodes), fluorescence measurement; assay type: cell-based; conditions: chip translated, α-MEM medium
Experimental: (b) The fluorescent measurement of the adhered cell when the chip was translated into the measurement window (the peak provides the total fluorescence) and out of the measurement window (the baseline provides the background).
The SASCA method was performed for comparison with the DEP-based method. The SASCA method was performed in a chip without DEP electrodes. Cell 43 was moved into and out detection window 47 and at the same time DNR was delivered to cell retention region 30 (FIG. 21). In the SASCA method, cell movement was achieved by moving the chip with cell 43 which adheres to the bottom surface of cell retention region 30 in the chip.

SMILES: COc1cccc2c1C(=O)c1c(O)c3c(c(O)c1C2=O)C[C@@](O)(C(C)=O)C[C@@H]3O[C@H]1C[C@H](N)[C@H](O)[C@H](C)O1 [DNR, daunorubicin]
- DNR accumulation in cell (cell fluorescence, peaks minus troughs) [1]: very little DNR accumulation
- DNR accumulation in cell (fluorescence of cell over measurement time) [2]: accumulated inside the cell
